For orientation: MIC means the least concentration at which growth counts as inhibited.

Type in all cases: functional
The subject of experiment [1] is Mycobacterium tuberculosis. In words: Antitubercular activity against extensive drug-resistant Mycobacterium tuberculosis clinical isolate 7 assessed as growth inhibition by microdilution method. Background: Dilution methods test growth across graded concentrations, often in twofold steps.
For experiment [2], the system named is Mycobacterium tuberculosis. The experiment is described as follows: Antitubercular activity against extensive drug-resistant Mycobacterium tuberculosis clinical isolate 6 assessed as growth inhibition by microdilution method.
In experiment [3] the test system is Mycobacterium tuberculosis. In words: Antitubercular activity against extensive drug-resistant Mycobacterium tuberculosis clinical isolate 5 assessed as growth inhibition by microdilution method.
Experiment [4] concerns Mycobacterium tuberculosis. The experiment is described as follows: Antitubercular activity against extensive drug-resistant Mycobacterium tuberculosis clinical isolate 4 assessed as growth inhibition by microdilution method.
Experiment [5] concerns Mycobacterium tuberculosis. The experiment is described as follows: Antitubercular activity against multidrug-resistant Mycobacterium tuberculosis clinical isolate 3 assessed as growth inhibition by microdilution method.
Experiment [6] concerns Mycobacterium tuberculosis. The experiment is described as follows: Antitubercular activity against multidrug-resistant Mycobacterium tuberculosis clinical isolate 2 assessed as growth inhibition by microdilution method.
Experiment [7] concerns Mycobacterium tuberculosis. In words: Antitubercular activity against isoniazid-resistant Mycobacterium tuberculosis H37RV clinical isolate 1 assessed as growth inhibition by microdilution method. The conditions noted are these: H37Rv isolate 1.
Experiment [8] concerns Mycobacterium tuberculosis. In words: Ratio of MIC for compound to linezolid for extensive drug-resistant Mycobacterium tuberculosis.
Experiment [9] relates to Mycobacterium tuberculosis. The experiment is described as follows: Ratio of MIC for compound to linezolid for multidrug-resistant Mycobacterium tuberculosis.

On to `NNC(=O)c1ccncc1` [ISONIAZID], for which the minimum inhibitory concentration (MIC) in experiment [1] worked out at 8 µg/mL; in experiment [2], 4 µg/mL; in experiment [3] it was 4 µg/mL; in experiment [4] it was 2 µg/mL; in [5] it was 2 µg/mL; in experiment [6], 8 µg/mL. The MIC in experiment [7] worked out at 2 µg/mL.
Turning to `CC(=O)NC[C@H]1CN(c2ccc(N3CCOCC3)c(F)c2)C(=O)O1` [LINEZOLID], the MIC came out at 0.25 µg/mL in [1]; 0.25 µg/mL in experiment [2]; 0.25 µg/mL in experiment [3]; 1 µg/mL in [4]; 0.25 µg/mL in experiment [5]; 0.25 µg/mL in [7].
Consider `COc1ccc(N2C[C@@H](COc3ccc(N4C[C@H](CNC(C)=O)OC4=O)cc3F)OC2=O)cc1`, for which the Ratio in [8] and in [9] was more than 20 throughout. The MIC is 8 µg/mL in [1]; 2 µg/mL in experiment [2]; 4 µg/mL in experiment [3]; 4 µg/mL in experiment [4]; 4 µg/mL in experiment [5]; 4 µg/mL in [6]. The MIC in experiment [7] came out at 4 µg/mL.
With `CC(=O)NC[C@H]1CN(c2ccc(OC[C@@H]3CN(c4ccccc4)C(=O)O3)c(F)c2)C(=O)O1`, the Ratio in experiment [8] and in experiment [9] was more than 20 each time. Also, the MIC in experiment [1] stood at 8 µg/mL; in experiment [2], 2 µg/mL; in experiment [3], 4 µg/mL; in experiment [4] it was 4 µg/mL; in experiment [5], 4 µg/mL; in experiment [6] it was 4 µg/mL. For the same compound, in [7], the MIC amounted to 8 µg/mL.
